What follows are molecules tested against T1, STING (Homo sapiens, UniProt Q86WV6, G230A/H232R/R293Q/R71H) (assay: STING reporter assay: luciferase reporter activity in THP1-Dual KO-IFNAR2 cells stimulated with 2'3'cGAMP). Details: 2′3′cGAMP 15 μM final, 24h, read-out: hSTING: EC50.
T1 construct: host or cells: THP1-Dual KO-IFNAR2 cells
Type: cell-based
Outline: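 THP1-Dual KO-IFNAR2 cells (2×10E6 cells/mL) incubated with compounds at 0.0017-100 μM final plus Lipofectamine-transfected 2′3′cGAMP (15 μM final), 24 h at 37 °C, 5% CO2. Luciferase in supernatant read by QUANTI-Luc luminescence; EC50 derived.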

T1 sequence (Q86WV6 whole entry R71H/G230A/H232R/R293Q): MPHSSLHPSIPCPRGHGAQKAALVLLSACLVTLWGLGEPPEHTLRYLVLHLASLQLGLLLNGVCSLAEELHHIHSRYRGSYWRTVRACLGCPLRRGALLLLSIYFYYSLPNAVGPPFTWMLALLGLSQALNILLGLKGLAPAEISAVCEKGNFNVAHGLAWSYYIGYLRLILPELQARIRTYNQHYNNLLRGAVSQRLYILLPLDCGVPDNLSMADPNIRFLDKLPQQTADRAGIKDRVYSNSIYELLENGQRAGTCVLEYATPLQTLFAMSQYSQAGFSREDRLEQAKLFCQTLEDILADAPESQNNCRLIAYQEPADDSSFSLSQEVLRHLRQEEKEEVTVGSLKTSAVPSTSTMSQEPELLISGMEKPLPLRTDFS

SMILES | EC50
Cc1ccc(CNC(=O)C(=O)Nc2c[nH]c3cc(F)c(F)c(Br)c23)cc1C(F)(F)F [Compound 242] | 5000 to 100000 nM
O=C(Nc1c[nH]c2cc(F)c(F)cc12)C(=O)N[C@H]1CC[C@@H](Oc2ccc(C(F)(F)F)cc2)CC1 [Compound 249] | 1000 to 5000 nM
O=C(Nc1c[nH]c2cc(F)c(F)cc12)C(=O)N[C@H]1CC[C@H](Oc2ccc(C(F)(F)F)cc2)CC1 [Compound 250, N-(5,6-difluoro-1H-indol-3-yl)-N′-(trans-4-(4-(trifluoromethyl)phenoxy)cyclohexyl)oxalamide] | 40 to 200 nM
O=C(Nc1c[nH]c2cc(F)c(F)cc12)C(=O)N1CCC(Cc2ccc(C(F)(F)F)cc2)CC1 [Compound 251] | 1000 to 5000 nM
O=C(Nc1c[nH]c2cc(F)c(F)cc12)C(=O)N1CCC2(CCCCC2)CC1 [Compound 252] | 1000 to 5000 nM
O=C(Nc1c[nH]c2cc(F)c(F)cc12)C(=O)N1CCN(Cc2ccc(C(F)(F)F)cc2)CC1 [Compound 253] | 200 to 1000 nM
Cc1ccccc1N1C2CCC1CC(NC(=O)C(=O)Nc1c[nH]c3cc(F)c(F)cc13)C2 (stereo not drawn) [Compound 254] | 200 to 1000 nM
O=C(Nc1c[nH]c2cc(F)c(F)cc12)C(=O)NC1CCC(Oc2ccc(C(F)(F)F)cn2)CC1 (stereo not drawn) [Compound 255] | 5000 to 100000 nM
O=C(Nc1c[nH]c2cc(F)c(F)cc12)C(=O)NC1CCN(Cc2ccccc2)C2(CCCCC2)C1 (stereo not drawn) [Compound 256] | 1000 to 5000 nM
O=C(NCC1COc2ccccc2O1)C(=O)Nc1c[nH]c2cc(F)c(F)cc12 (stereo not drawn) [Compound 261, N-(5,6-difluoro-1H-indol-3-yl)-N′-[(2,3-dihydro-1,4-benzodioxin-2-yl)methyl] ethanediamide] | 200 to 1000 nM
O=C(Nc1ccc2c(cnn2Cc2cccc(F)c2)c1)C(=O)Nc1c[nH]c2cc(F)c(F)cc12 [Compound 262, N-(5,6-difluoro-1H-indol-3-yl)-N′-{1-[(3-fluorophenyl)methyl]-1H-indazol-5-yl}ethanediamide] | 200 to 1000 nM
O=C(Nc1ccc(C(F)(F)F)cc1)C(=O)Nc1c[nH]c2ccc(I)cc12 [Compound 263] | 200 to 1000 nM
O=C(Nc1c[nH]c2cc(F)c(F)cc12)C(=O)N[C@H]1CCN(c2ccc(C(F)(F)F)cn2)C1 [Compound 264, (S)-N-(5,6-difluoro-1H-indol-3-yl)-N′-(1-(5-(trifluoromethyl)pyridin-2-yl)pyrrolidin-3-yl)oxalamide] | 200 to 1000 nM
O=C(Nc1ccc(-n2cncn2)c(Cl)c1)C(=O)Nc1c[nH]c2cc(F)c(F)cc12 [Compound 265, N′-[3-chloro-4-(1H-1,2,4-triazol-1-yl)phenyl]-N-(5,6-difluoro-1H-indol-3-yl)ethanediamide] | 1000 to 5000 nM
CN1CCOc2cc(NC(=O)C(=O)Nc3c[nH]c4cc(F)c(F)cc34)ccc21 [Compound 266, N-(5,6-difluoro-1H-indol-3-yl)-N′-(4-methyl-3,4-dihydro-2H-1,4-benzoxazin-7-yl)ethanediamide] | 200 to 1000 nM
CC(C)(C)OC(=O)N1CC2CC(NC(=O)C(=O)Nc3c[nH]c4cc(F)c(F)cc34)CC2C1 (stereo not drawn) [Compound 267, tert-butyl 5-{[(5,6-difluoro-1H-indol-3-yl)carbamoyl] formamido}-octahydrocyclopenta[c] pyrrole-2-carboxylate] | 200 to 1000 nM
O=C(Nc1ccc2c(c1)CCCC2=O)C(=O)Nc1c[nH]c2cc(F)c(F)cc12 [Compound 268, N-(5,6-difluoro-1H-indol-3-yl)-N′-(5-oxo-5,6,7,8-tetrahydro-naphthalen-2-yl)ethanediamide] | 200 to 1000 nM
O=C(NCCc1ccc(C(F)(F)F)cn1)C(=O)Nc1c[nH]c2cc(F)c(F)cc12 [Compound 269, N-(5,6-difluoro-1H-indol-3-yl)-N′-{2-[5-(trifluoromethyl)pyridin-2-yl]ethyl}ethanediamide] | 200 to 1000 nM
N#Cc1ccc(OC2CCC(NC(=O)C(=O)Nc3c[nH]c4cc(F)c(F)cc34)CC2)cc1 (stereo not drawn) [Compound 270, N′-[4-(4-cyanophenoxy)cyclohexyl]-N-(5,6-difluoro-1H-indol-3-yl)ethanediamide] | 200 to 1000 nM
CC(C)(C)OC(=O)N1CCC2(CC1)CC(NC(=O)C(=O)Nc1c[nH]c3cc(F)c(F)cc13)CO2 (stereo not drawn) [Compound 271, tert-butyl 3-{[(5,6-difluoro-1H-indol-3-yl)carbamoyl] formamido}-1-oxa-8-azaspiro[4.5]decane-8-carboxylate] | 1000 to 5000 nM
COc1ccc(Oc2ccc(NC(=O)C(=O)Nc3c[nH]c4cc(F)c(F)cc34)cc2C)cn1 [Compound 272, N-(5,6-difluoro-1H-indol-3-yl)-N′-{4-[(6-methoxypyridin-3-yl)oxy]-3-methylphenyl} ethanediamide] | 200 to 1000 nM
O=C(Nc1ccc2c(c1)oc(=O)n2Cc1ccccc1)C(=O)Nc1c[nH]c2cc(F)c(F)cc12 [Compound 273, N′-(3-benzyl-2-oxo-2,3-dihydro-1,3-benzoxazol-6-yl)-N-(5,6-difluoro-1H-indol-3-yl)ethanediamide] | 200 to 1000 nM
O=C(Nc1cnc2c(c1)CCC2)C(=O)Nc1c[nH]c2cc(F)c(F)cc12 [Compound 274, N′-{5H,6H,7H-cyclopenta[b]pyridin-3-yl}-N-(5,6-difluoro-1H-indol-3-yl)ethanediamide] | 1000 to 5000 nM

SMILES | EC50
O=C(NCC(=O)c1cccc(C(F)(F)F)c1)C(=O)Nc1c[nH]c2cc(F)c(F)cc12 [Compound 275, N-(5,6-difluoro-1H-indol-3-yl)-N′-{2-oxo-2-[3-(trifluoromethyl)phenyl]ethyl} ethanediamide] | 200 to 1000 nM
CC(COc1ccc(C(F)(F)F)cc1)NC(=O)C(=O)Nc1c[nH]c2cc(F)c(F)cc12 (stereo not drawn) [Compound 276, N-(5,6-difluoro-1H-indol-3-yl)-N′-{1-[4-(trifluoromethyl)phenoxy]propan-2-yl}ethanediamide] | 200 to 1000 nM
O=C(NCC(c1ccccc1)n1ccnc1)C(=O)Nc1c[nH]c2cc(F)c(F)cc12 (stereo not drawn) [Compound 277, N-(5,6-difluoro-1H-indol-3-yl)-N′-[2-(1H-imidazol-1-yl)-2-phenylethyl] ethanediamide] | 5000 to 100000 nM
O=C(Nc1c[nH]c2cc(F)c(F)cc12)C(=O)NC1CCOC2(CCCC2)C1 (stereo not drawn) [Compound 278] | 1000 to 5000 nM
O=C(Nc1c[nH]c2cc(F)c(F)cc12)C(=O)NC1CCC2(CCCC2)C1 (stereo not drawn) [Compound 279] | 200 to 1000 nM
O=C(Nc1c[nH]c2cc(F)c(F)cc12)C(=O)NC1CCC2(CCCCC2)C1 (stereo not drawn) [Compound 280] | 200 to 1000 nM
O=C(Nc1c[nH]c2cc(F)c(F)cc12)C(=O)NC1CCCC2(CCCCC2)C1 (stereo not drawn) [Compound 281] | 200 to 1000 nM
O=C(Nc1c[nH]c2cc(F)c(F)cc12)C(=O)NC1CCC2(CCCCO2)CC1 (stereo not drawn) [Compound 282] | 200 to 1000 nM
CC(CN(C)c1ccccn1)NC(=O)C(=O)Nc1c[nH]c2cc(F)c(F)cc12 (stereo not drawn) [Compound 284] | 1000 to 5000 nM
Cc1ccc(CNC(=O)C(=O)Nc2c[nH]c3ccc(-c4cnn(CC(F)(F)F)c4)cc23)cc1OC(F)(F)F [Compound 285] | 40 to 200 nM
N#Cc1cc(NC(=O)C(=O)Nc2c[nH]c3cc(F)c(F)cc23)ccc1N1CCCC1 [Compound 286, N′-[3-cyano-4-(pyrrolidin-1-yl)phenyl]-N-(5,6-difluoro-1H-indol-3-yl)ethanediamide] | 200 to 1000 nM
COc1ncc(NC(=O)C(=O)Nc2c[nH]c3cc(F)c(F)cc23)cc1C(F)(F)F [Compound 287, N-(5,6-difluoro-1H-indol-3-yl)-N′-[6-methoxy-5-(trifluoromethyl)pyridin-3-yl]ethanediamide] | 1000 to 5000 nM
CC(NC(=O)C(=O)Nc1c[nH]c2cc(F)c(F)cc12)c1cccc(OC(F)(F)F)c1 (stereo not drawn) [Compound 288, N-(5,6-difluoro-1H-indol-3-yl)-N′-{1-[3-(trifluoromethoxy)phenyl]ethyl} ethanediamide] | 200 to 1000 nM
Cc1cc(NC(=O)C(=O)Nc2c[nH]c3cc(F)c(F)cc23)ccc1OC(F)(F)F [Compound 289, N-(5,6-difluoro-1H-indol-3-yl)-N′-[3-methyl-4-(trifluoromethoxy)phenyl] ethanediamide] | 40 to 200 nM
O=C(NCCOc1cccnc1)C(=O)Nc1c[nH]c2cc(F)c(F)cc12 [Compound 290, N-(5,6-difluoro-1H-indol-3-yl)-N′-[2-(pyridin-3-yloxy)ethyl] ethanediamide] | 5000 to 100000 nM
C[C@@H](NC(=O)C(=O)Nc1c[nH]c2cc(F)c(F)cc12)c1cccc(C(F)(F)F)c1 [Compound 291, N-(5,6-difluoro-1H-indol-3-yl)-N′-[(1R)-1-[3-(trifluoromethyl)phenyl]ethyl] ethanediamide] | 200 to 1000 nM
O=C(Nc1ccc2c(c1)OC(F)(F)O2)C(=O)Nc1c[nH]c2cc(F)c(F)cc12 [Compound 292, N-(5,6-difluoro-1H-indol-3-yl)-N′-(2,2-difluoro-2H-1,3-benzodioxol-5-yl)ethanediamide] | 200 to 1000 nM
COc1cc(NC(=O)C(=O)Nc2c[nH]c3cc(F)c(F)cc23)ccc1N1CCCC1 [Compound 293, N-(5,6-difluoro-1H-indol-3-yl)-N′-[3-methoxy-4-(pyrrolidin-1-yl)phenyl] ethanediamide] | 200 to 1000 nM
O=C(NCCN1CCCc2ccccc21)C(=O)Nc1c[nH]c2cc(F)c(F)cc12 [Compound 294, N-(5,6-difluoro-1H-indol-3-yl)-N′-[2-(1,2,3,4-tetrahydroquinolin-1-yl)ethyl]ethanediamide] | 200 to 1000 nM
C#Cc1cc(NC(=O)C(=O)Nc2c[nH]c3cc(F)c(F)cc23)ccc1Cl [Compound 295, N′-(4-chloro-3-ethynylphenyl)-N-(5,6-difluoro-1H-indol-3-yl)ethanediamide] | 200 to 1000 nM
O=C(Nc1cnc2sccc2c1)C(=O)Nc1c[nH]c2cc(F)c(F)cc12 [Compound 296, N′-(5,6-difluoro-1H-indol-3-yl)-N-{thieno[2,3-b]pyridin-5-yl}ethanediamide] | 200 to 1000 nM
CC(C)(C)OC(=O)N1CCC2(CCC(NC(=O)C(=O)Nc3c[nH]c4cc(F)c(F)cc34)CC2)CC1 [Compound 297, tert-butyl 9-{[(5,6-difluoro-1H-indol-3-yl)carbamoyl] formamido}-3-azaspiro[5.5]undecane-3-carboxylate] | 200 to 1000 nM

From US20230021448A1, “COMPOUNDS AND COMPOSITIONS FOR TREATING CONDITIONS ASSOCIATED WITH STING ACTIVITY” (IFM Due, Inc., priority 2019, published 2023)
